Results as given in patent US20210338719A1 (SOCIETE DES PRODUITS NESTLE S.A., priority 2017, published 2021).

Test: Oxidation of LC-PUFAs caused by iron source
Type: physicochemical
Conditions: iron source in composition containing LC-PUFAs

| SMILES | Oxidation of LC-PUFAs |
| --- | --- |
| O.O.O.O.O.O.O.O=S(=O)([O-])[O-].[Fe+2] [ferrous sulphate heptahydrate] | significant oxidation of LC-PUFAs |
| O.O=S(=O)([O-])[O-].[Fe+2] [ferrous sulphate monohydrate] | no significant oxidation of LC-PUFAs |
